Laboratory results from US6562864B1, “Catechin multimers as therapeutic drug delivery agents” (priority 1999, dated 2003).
Read-outs that look alike come from different tables or passages of the source.

Columns and labels:
rat aortic rings = assay: Contraction and endothelium dependent relaxation of rat aortic rings; conditions: mean (±SEM)
Experimental: Male Sprague-Dawley rats (200-250 g) were euthanized with an overdose of sodium pentobarbital (100 mg/kg, i.p.) and bled. The thoracic aorta was excised and cleaned and rings 3-4 mm in length were cut, taking care not to disturb the endothelium The rings were suspended in tissue baths containing a physiologic salt solution. The solution was bubbled continuously with O2/CO2 (95%/5%), and maintained at 37° C. Contraction activity was recorded on a Grass polygraph. After equilibration for at least 1 h under 1.5 g of tension, tissues were contracted submaximally (approximately 80% of Emax) with 1 μM phenylephrine. […] This concentration of acetylcholine is sufficient to produce maximum endothelium dependent relaxation in intact rings.
Rings were washed with physiological salt solution three times over the next 45 min. prior to the subsequent testing. Beginning with a concentration determined in preliminary experiments to be below the threshold for relaxation, and increased until a relaxation of approximately 15% was achieved (relative to the relaxation induced by 3 μM acetycholine).

human platelets [1] = assay: Human platelet aggregation trial with platelet activating factor (PAF) as aggregating agent; format: cell-based
Experimental: (§1) Human platelet aggregation trials, using PAF and thrombin as aggregating agents, were conducted with gallic acid, catechin and amidated catechin multimers (made according to the process of Example 1). The protocol was as follows: Test compounds (50 μM gallic acid, 100 μM catechin and 3 μM amidated catechin multimer) were dissolved in water and 10 μl of sample was added to 1 ml aliquots of human platelets to give the final estimated vessel content concentration of 3 μM.^1 Next, human platelets at a concentration of 1×10^−7/ml were preincubated for ten minutes at 37° C. with either vehicle (contol) or with 3 μM of the amino-catechin multimer test compound. Then, either platelet activating factor (5×10^−10 μM) or thrombin (0.05 mg/ml) were added and aggregation was monitored over the next 10 minutes in a PACKS-4 Platelet Aggregation Chromogenic Kinetic System (Helena Lab., Beaumont, Tex.). ^1 The molar concentration of total product was 10 μM. […] For molar calculations, the molecular weight of the amino-catechin was presumed to be 300 daltons.

human platelets [2] = assay: Human platelet aggregation trial with thrombin as aggregating agent; format: cell-based
Experimental: as §1

[3] = Preliminary ex-vitro trials: cholesterol solubility in human plasma
Excerpt: Limonene is commonly thought of as a solvent, having a KB value of 67.

Question: Which EC50 (rat aortic rings; rat aortic rings contracted with 1 μM phenylephrine, read-out: EC50 for EDR (endothelium dependent relaxation)) does the source give for `CC(=O)OCC[N+](C)(C)C` [acetylcholine] here?
Answer: 120 ± 60 nM

Question: Which “inhibition of human platelet aggregation caused by platelet activating factor” value (human platelets [1]; 100 μM) does the source give for `O.Oc1cc(O)c2c(c1)O[C@H](c1ccc(O)c(O)c1)[C@@H](O)C2` [catechin] here?
Answer: no inhibition

Question: And the “inhibition of human platelet aggregation caused by thrombin” value (human platelets [2]; 100 μM)?
Answer: no inhibition

Question: For `O=C(O)c1cc(O)c(O)c(O)c1` [gallic acid], which “inhibition of human platelet aggregation caused by platelet activating factor” value (human platelets [1]; 50 μM) is on record?
Answer: no inhibition

Question: What about the “inhibition of human platelet aggregation caused by thrombin” value (human platelets [2]; 50 μM) of the same compound?
Answer: no inhibition

Question: Which “rate of plasma metabolizing excess cholesterol” value ([3]; minimum rate) does the source give for `C=C(C)C1CC=C(C)CC1` (centres unmarked) [limonene, 4-isopropenyl-1-methylcyclohexene] here?
Answer: ≥ 4 % per hour

Question: What about the “increase of the rate of solubility of cholesterol” value ([3]; over a one hour period) of the same compound?
Answer: 24%

Question: Which EC50 (rat aortic rings; rat aortic rings, read-out: EC50 value for phenylephrine (contractile effect)) does the source give for `CNC[C@H](O)c1cccc(O)c1` [phenylephrine] here?
Answer: 140 ± 20 nM
